Key:
Assay in all cases: viability relative to DMSO control (fraction); higher = less drug effect (more viable cells)
Details in all cases: 48 h
Palbociclib = compound: CC(=O)c1c(C)c2cnc(Nc3ccc(N4CCNCC4)cn3)nc2n(C2CCCC2)c1=O [Palbociclib]
In short: (§1)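 Using 384-well plates with compounds already plated at five concentrations, one well per concentration, 4 × 10^4 primary mononuclear tumour cells were added per well. Cells were Ficoll-isolated from blood or bone marrow or came from processed lymph node, fresh or cryopreserved. They were kept for 48 h at 37 °C and 5% CO2 in RPMI-1640 supplemented with penicillin/streptomycin, L-glutamine and human serum, and viability was read as CellTiter-Glo luminescence relative to the median of 16 inner DMSO wells.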

Navitoclax = compound: CC1(C)CCC(c2ccc(Cl)cc2)=C(CN2CCN(c3ccc(C(=O)NS(=O)(=O)c4ccc(N[C@H](CCN5CCOCC5)CSc5ccccc5)c(S(=O)(=O)C(F)(F)F)c4)cc3)CC2)C1 [Navitoclax]
In short: as §1

I-BET-762 = compound: CCNC(=O)C[C@@H]1N=C(c2ccc(Cl)cc2)c2cc(OC)ccc2-n2c(C)nnc21 [I-BET-762]
In short: as §1

CPI-169 = compound: CCS(=O)(=O)N1CCC([C@@H](C)n2c(C)c(C(=O)NCc3c(OC)cc(C)[nH]c3=O)c3ccccc32)CC1 [CPI-169]
In short: as §1

[1] = compound: CCc1ccc(/C=C2/SC(=S)NC2=O)cc1
In short: as §1

Everolimus = compound: CO[C@H]1C[C@@H]2CC[C@@H](C)[C@@](O)(O2)C(=O)C(=O)N2CCCC[C@H]2C(=O)O[C@H]([C@H](C)C[C@@H]2CC[C@@H](OCCO)[C@H](OC)C2)CC(=O)[C@H](C)/C=C(\C)[C@@H](O)[C@@H](OC)C(=O)[C@H](C)C[C@H](C)/C=C/C=C/C=C/1C [Everolimus]
In short: as §1

Etoposide = compound: COc1cc([C@@H]2c3cc4c(cc3[C@@H](O[C@@H]3O[C@@H]5CO[C@@H](C)O[C@H]5[C@H](O)[C@H]3O)[C@H]3COC(=O)[C@H]23)OCO4)cc(OC)c1O [Etoposide]
In short: as §1

Tofacitinib = compound: C[C@@H]1CCN(C(=O)CC#N)C[C@@H]1N(C)c1ncnc2[nH]ccc12 [Tofacitinib]
In short: as §1

Duvelisib = compound: C[C@H](Nc1ncnc2nc[nH]c12)c1cc2cccc(Cl)c2c(=O)n1-c1ccccc1 [Duvelisib]
In short: as §1

Pomalidomide = compound: Nc1cccc2c1C(=O)N(C1CCC(=O)NC1=O)C2=O [Pomalidomide]
In short: as §1

Filgotinib = compound: O=C(Nc1nc2cccc(-c3ccc(CN4CCS(=O)(=O)CC4)cc3)n2n1)C1CC1 [Filgotinib]
In short: as §1

Thalidomide = compound: O=C1CCC(N2C(=O)c3ccccc3C2=O)C(=O)N1 [Thalidomide]
In short: as §1

primary DLBCL patient cells (S076)
viability (Palbociclib; 0.024 µM): 1.14
viability (Palbociclib; 0.12 µM): 1.14
viability (Palbociclib; 0.6 µM): 0.991
viability (Palbociclib; 3 µM): 0.647
viability (Palbociclib; 15 µM): 0.221
viability (Navitoclax; 0.0032 µM): 1.07
viability (Navitoclax; 0.016 µM): 0.95
viability (Navitoclax; 0.08 µM): 0.689
viability (Navitoclax; 0.4 µM): 0.279
viability (Navitoclax; 2 µM): 0.15
viability (I-BET-762; 0.008 µM): 1.08
viability (I-BET-762; 0.04 µM): 1.04
viability (I-BET-762; 0.2 µM): 0.94
viability (I-BET-762; 1 µM): 0.82
viability (I-BET-762; 5 µM): 0.738
viability (CPI-169; 0.024 µM): 1.04
viability (CPI-169; 0.12 µM): 1.04
viability (CPI-169; 0.6 µM): 1.07
viability (CPI-169; 3 µM): 0.993
viability (CPI-169; 15 µM): 1.05
viability ([1]; 0.024 µM): 0.949
viability ([1]; 0.12 µM): 0.942
viability ([1]; 0.6 µM): 1.07
viability ([1]; 3 µM): 0.995
viability ([1]; 15 µM): 0.942
viability (Everolimus; 0.0032 µM): 0.937
viability (Everolimus; 0.016 µM): 0.888
viability (Everolimus; 0.08 µM): 0.891
viability (Everolimus; 0.4 µM): 0.887
viability (Everolimus; 2 µM): 0.855
viability (Etoposide; 0.032 µM): 0.882
viability (Etoposide; 0.16 µM): 1.05
viability (Etoposide; 0.8 µM): 0.81
viability (Etoposide; 4 µM): 0.901
viability (Etoposide; 20 µM): 0.551
viability (Tofacitinib; 0.024 µM): 0.916
viability (Tofacitinib; 0.12 µM): 0.864
viability (Tofacitinib; 0.6 µM): 0.818
viability (Tofacitinib; 3 µM): 0.823
viability (Tofacitinib; 15 µM): 0.824
viability (Duvelisib; 0.0016 µM): 0.884
viability (Duvelisib; 0.008 µM): 0.839
viability (Duvelisib; 0.04 µM): 0.732
viability (Duvelisib; 0.2 µM): 0.718
viability (Duvelisib; 1 µM): 0.611
viability (Pomalidomide; 0.0032 µM): 0.926
viability (Pomalidomide; 0.016 µM): 1.07
viability (Pomalidomide; 0.08 µM): 1.08
viability (Pomalidomide; 0.4 µM): 0.84
viability (Pomalidomide; 2 µM): 1.05
viability (Filgotinib; 0.024 µM): 1.02
viability (Filgotinib; 0.12 µM): 1.03
viability (Filgotinib; 0.6 µM): 0.966
viability (Filgotinib; 3 µM): 0.911
viability (Filgotinib; 15 µM): 0.348
viability (Thalidomide; 0.032 µM): 1.06
viability (Thalidomide; 0.16 µM): 0.993
viability (Thalidomide; 0.8 µM): 1.09
viability (Thalidomide; 4 µM): 1.11
viability (Thalidomide; 20 µM): 1.06

primary T-NHL patient cells (S058)
viability (Palbociclib; 0.024 µM): 1.15
viability (Palbociclib; 0.12 µM): 1.32
viability (Palbociclib; 0.6 µM): 1.08
viability (Palbociclib; 3 µM): 0.899
viability (Palbociclib; 15 µM): 0.538
viability (Navitoclax; 0.0032 µM): 1.19
viability (Navitoclax; 0.016 µM): 1.08
viability (Navitoclax; 0.08 µM): 1.01
viability (Navitoclax; 0.4 µM): 0.568
viability (Navitoclax; 2 µM): 0.325
viability (I-BET-762; 0.008 µM): 1.17
viability (I-BET-762; 0.04 µM): 1.03
viability (I-BET-762; 0.2 µM): 0.904
viability (I-BET-762; 1 µM): 0.816
viability (I-BET-762; 5 µM): 0.61
viability (CPI-169; 0.024 µM): 1.03
viability (CPI-169; 0.12 µM): 1.06
viability (CPI-169; 0.6 µM): 0.995
viability (CPI-169; 3 µM): 1.05
viability (CPI-169; 15 µM): 0.961
viability ([1]; 0.024 µM): 0.89
viability ([1]; 0.12 µM): 0.978
viability ([1]; 0.6 µM): 1.14
viability ([1]; 3 µM): 0.927
viability ([1]; 15 µM): 0.909
viability (Everolimus; 0.0032 µM): 0.922
viability (Everolimus; 0.016 µM): 1.07
viability (Everolimus; 0.08 µM): 0.954
viability (Everolimus; 0.4 µM): 1.03
viability (Everolimus; 2 µM): 0.944
viability (Etoposide; 0.032 µM): 0.838
viability (Etoposide; 0.16 µM): 1.16
viability (Etoposide; 0.8 µM): 0.739
viability (Etoposide; 4 µM): 0.654
viability (Etoposide; 20 µM): 0.268
viability (Tofacitinib; 0.024 µM): 0.865
viability (Tofacitinib; 0.12 µM): 0.895
viability (Tofacitinib; 0.6 µM): 0.94
viability (Tofacitinib; 3 µM): 0.935
viability (Tofacitinib; 15 µM): 0.937
viability (Duvelisib; 0.0016 µM): 1.1
viability (Duvelisib; 0.008 µM): 1.04
viability (Duvelisib; 0.04 µM): 0.923
viability (Duvelisib; 0.2 µM): 1.03
viability (Duvelisib; 1 µM): 0.91
viability (Pomalidomide; 0.0032 µM): 0.937
viability (Pomalidomide; 0.016 µM): 1.16
viability (Pomalidomide; 0.08 µM): 1.27
viability (Pomalidomide; 0.4 µM): 0.858
viability (Pomalidomide; 2 µM): 1.2
viability (Filgotinib; 0.024 µM): 0.912
viability (Filgotinib; 0.12 µM): 0.985
viability (Filgotinib; 0.6 µM): 0.904
viability (Filgotinib; 3 µM): 0.875
viability (Filgotinib; 15 µM): 0.524
viability (Thalidomide; 0.032 µM): 1.03
viability (Thalidomide; 0.16 µM): 1.02
viability (Thalidomide; 0.8 µM): 1.07
viability (Thalidomide; 4 µM): 1.14
viability (Thalidomide; 20 µM): 1.02

Source: the supplement of paper PMC10733146
